Experiments:
Pol δ = molecular target: T1, Pol δ (Homo sapiens, UniProt P28340); test: poly(dA)/oligo(dT) DNA polymerase assay; type: biochemical
T1 construct: made in house; host or cells: insect cells (Pol δ); E. coli (PCNA)
Description: In order to validate the predicted inhibitory properties of zelpolib, we used the well-established DNA polymerase assay, poly(dA)/oligo(dT) method^1,16, to quantify the inhibition constants. In this assay, a poly(dA) template (up to 4 kilobases) was randomly primed with oligo(dT) primers (40 mer). In the presence of proliferating cell nuclear antigen (PCNA), Pol δ will initiate the elongation of oligo dT primer with the incorporation of radio-labeled deoxythymidine (^3H). The polymerase activity can then be precisely quantified by counting the isotope incorporated.
A model structure of the catalytic domain of human Pol δ was generated based on the structure of yeast pol δ^72 by SWISSPDB^73. The primary sequences of both proteins are conserved and the active sites structures were virtually identical between the model structure and that of yeast pol δ. […] Subsequently, the 300 compounds with the highest scores were selected and analyzed by Pymol. […]
Three different assays are used to analyze DNA polymerase activities and the impact of zelpolib. The poly(dA)/oligo(dT) assay^1,16 were used for precisely quantification as reported. […] [3H]dTMP incorporation was read on liquid scintillation counter. […]

HEK 293T cells = test: Two plasmid DR-GFP/I-SceI double strand break repair (homologous recombination) assay; type: cell-based, human
Description: In addition to being indispensable for the duplication of chromosomes, Pol δ also plays critical roles in various DNA repair pathways^32. It has been shown that Pol δ is the preferred polymerase for the D-loop extension during homologous recombination repair^33. Thus, we investigated the effect of zelpolib on HR efficiency. We used the two plasmid DR-GFP assay developed by Nakanishi et al^34, which is a modified version of the initial method^35. The first plasmid contains a mutant GFP that has lost the ability to fluoresce. The second plasmid contains the coding region of a restriction enzyme, I-SceI. The co-transfection of the two plasmids will result in the expression of I-SceI, which can digest the DR-GFP plasmid at the mutation site leading to the formation of a double strand break. […] Therefore, the percentage of fluorescent cells is the readout of the efficacy of HR. […] The efficacy of HR was analyzed about 40 hours later by flow cytometry.
The efficacy of homologous recombination was analyzed by a two-plasmids system according to published protocol^34,35. […] Cellular fluorescence for GFP was measured by flow cytometry (Beckman coulter, MoFlo XDP). About 32,000 cells were analyzed per sample. […] The experiment was repeated three more times and statistics were calculated using GraphPad prism software.

T1 sequence (P28340 whole entry): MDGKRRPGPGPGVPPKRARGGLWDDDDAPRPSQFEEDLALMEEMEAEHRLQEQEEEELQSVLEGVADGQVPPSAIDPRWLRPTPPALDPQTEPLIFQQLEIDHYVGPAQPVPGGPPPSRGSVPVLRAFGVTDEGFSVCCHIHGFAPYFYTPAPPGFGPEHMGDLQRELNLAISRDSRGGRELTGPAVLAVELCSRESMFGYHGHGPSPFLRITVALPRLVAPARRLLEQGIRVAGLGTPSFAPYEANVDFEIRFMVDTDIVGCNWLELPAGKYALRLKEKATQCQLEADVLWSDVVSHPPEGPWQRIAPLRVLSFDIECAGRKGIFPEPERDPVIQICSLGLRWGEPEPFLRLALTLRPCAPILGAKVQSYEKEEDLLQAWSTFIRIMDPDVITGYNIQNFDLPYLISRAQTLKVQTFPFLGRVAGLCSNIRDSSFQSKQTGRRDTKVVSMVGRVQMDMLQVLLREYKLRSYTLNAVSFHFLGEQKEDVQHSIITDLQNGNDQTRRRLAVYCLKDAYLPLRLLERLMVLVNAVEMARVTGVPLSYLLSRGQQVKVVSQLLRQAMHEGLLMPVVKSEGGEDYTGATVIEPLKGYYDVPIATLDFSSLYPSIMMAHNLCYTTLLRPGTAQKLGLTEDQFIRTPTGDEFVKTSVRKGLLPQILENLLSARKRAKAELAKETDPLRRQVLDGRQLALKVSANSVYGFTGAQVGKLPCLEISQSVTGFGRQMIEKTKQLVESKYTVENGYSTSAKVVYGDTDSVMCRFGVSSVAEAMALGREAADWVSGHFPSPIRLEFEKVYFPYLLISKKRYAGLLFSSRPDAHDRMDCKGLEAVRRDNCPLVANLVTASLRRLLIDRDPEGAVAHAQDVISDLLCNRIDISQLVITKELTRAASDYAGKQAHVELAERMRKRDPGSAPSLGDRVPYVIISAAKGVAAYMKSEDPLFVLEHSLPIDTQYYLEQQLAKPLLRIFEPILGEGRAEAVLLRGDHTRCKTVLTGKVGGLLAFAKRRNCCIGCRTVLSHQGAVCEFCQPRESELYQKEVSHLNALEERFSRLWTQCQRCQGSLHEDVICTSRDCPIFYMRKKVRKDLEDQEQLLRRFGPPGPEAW
T1 sequence (P49005 whole entry partner): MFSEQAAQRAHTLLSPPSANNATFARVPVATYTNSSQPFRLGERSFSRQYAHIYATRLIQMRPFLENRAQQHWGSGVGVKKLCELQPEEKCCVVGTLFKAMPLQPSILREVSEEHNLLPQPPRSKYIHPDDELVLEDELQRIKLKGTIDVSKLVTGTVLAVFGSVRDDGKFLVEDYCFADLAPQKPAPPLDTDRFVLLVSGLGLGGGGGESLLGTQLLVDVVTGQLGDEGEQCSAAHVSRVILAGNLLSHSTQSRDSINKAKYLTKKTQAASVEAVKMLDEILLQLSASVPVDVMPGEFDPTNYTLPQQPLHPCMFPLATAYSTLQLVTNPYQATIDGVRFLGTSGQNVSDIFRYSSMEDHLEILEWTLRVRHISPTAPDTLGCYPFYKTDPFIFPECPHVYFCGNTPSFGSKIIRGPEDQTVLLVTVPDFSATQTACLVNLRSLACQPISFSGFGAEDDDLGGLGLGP
T1 sequence (Q15054 whole entry partner): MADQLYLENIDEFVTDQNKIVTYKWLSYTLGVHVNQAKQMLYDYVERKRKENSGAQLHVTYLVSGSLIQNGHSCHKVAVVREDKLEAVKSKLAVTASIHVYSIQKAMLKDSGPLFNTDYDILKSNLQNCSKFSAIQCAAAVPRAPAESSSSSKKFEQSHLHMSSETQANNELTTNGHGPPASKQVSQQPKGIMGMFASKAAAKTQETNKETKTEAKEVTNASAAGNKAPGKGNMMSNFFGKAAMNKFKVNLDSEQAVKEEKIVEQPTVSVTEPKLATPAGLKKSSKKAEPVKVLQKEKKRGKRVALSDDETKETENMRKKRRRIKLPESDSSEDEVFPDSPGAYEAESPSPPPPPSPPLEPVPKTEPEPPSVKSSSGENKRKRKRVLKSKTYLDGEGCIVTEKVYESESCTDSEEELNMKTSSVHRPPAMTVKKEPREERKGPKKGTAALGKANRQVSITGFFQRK
T1 sequence (P12004 whole entry partner): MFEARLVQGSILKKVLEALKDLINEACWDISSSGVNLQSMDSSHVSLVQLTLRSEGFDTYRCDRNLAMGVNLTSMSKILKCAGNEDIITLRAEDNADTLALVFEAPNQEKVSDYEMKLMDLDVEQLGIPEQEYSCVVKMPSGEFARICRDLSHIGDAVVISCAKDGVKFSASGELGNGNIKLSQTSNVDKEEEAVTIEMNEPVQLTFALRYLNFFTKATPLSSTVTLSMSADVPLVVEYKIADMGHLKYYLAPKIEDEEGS

## COC(=O)c1cc(-c2ccccc2)sc1NC(=S)NNC(=O)CCc1ccc(O)c(O)c1 [zelpolib]
Pol δ; assayed at 10 μM
  inhibition of Pol δ activity at 10 μM: significant inhibition
Pol δ; non-competitive against dTTP, with PCNA, R^2=0.99, read-out: inhibition constant Ki of Pol δ activity
  Ki: 4.3 µM
HEK 293T cells; 20 μM zelpolib
  reduction in HR efficacy: comparable to those induced by siRNA knockdown of BRCA1 or BRCA2 individually
HEK 293T cells; two concentrations, about 40 hours
  inhibition of homologous recombination (percentage of GFP fluorescent cells): dose-dependent inhibition of HR

From patent US11324720B2, “Antiproliferative DNA polymerase inhibitor” (NEW YORK MEDICAL COLLEGE, priority 2018, dated 2022)
